From US20240325544A1, “CATIONIC LIPID FOR COVALENT MODIFICATION OF PEPTIDES” (PharmalN Corporation, priority 2023, published 2024) come the findings set out here.

Bridge positions count the residues as written; N and C are the ends. Square brackets hold non-standard residues; d marks the D form. Peptide text beside a SMILES is read from it. * marks the point of attachment. Palmitoyl = CCCCCCCCCCCCCCCC(=O)*; Dap = NC[C@H](N)C(=O)O; AEEA = NCCOCCOCC(=O)O

For the experiment, the target named is T1, NPR-C (Homo sapiens, UniProt P17342).
T1 construct: HeLa cells (known to express NPR-C); host or cells: HeLa cells
T1 sequence (P17342 27-541): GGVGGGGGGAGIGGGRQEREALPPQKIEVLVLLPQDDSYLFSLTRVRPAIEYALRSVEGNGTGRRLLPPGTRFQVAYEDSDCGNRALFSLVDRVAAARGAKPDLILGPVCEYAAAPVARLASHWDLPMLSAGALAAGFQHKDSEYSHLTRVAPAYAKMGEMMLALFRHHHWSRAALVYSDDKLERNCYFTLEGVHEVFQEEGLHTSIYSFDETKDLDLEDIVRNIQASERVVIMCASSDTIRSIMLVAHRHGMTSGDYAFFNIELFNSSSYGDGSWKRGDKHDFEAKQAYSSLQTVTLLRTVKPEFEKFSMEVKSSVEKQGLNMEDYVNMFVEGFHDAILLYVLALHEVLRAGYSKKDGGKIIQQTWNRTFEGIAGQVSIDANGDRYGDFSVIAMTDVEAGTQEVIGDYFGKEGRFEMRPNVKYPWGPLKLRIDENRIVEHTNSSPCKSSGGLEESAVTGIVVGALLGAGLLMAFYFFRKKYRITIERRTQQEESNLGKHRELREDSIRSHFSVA
As to the kind of experiment: cAMP baseline levels in HeLa cells (FIG. 13). In kind it is cell-based. The conditions noted are these: 10 μg/mL, 10 minutes, 1 mM IBMX. As for the experimental part:
In this study, HeLa cells were cultured in Dulbecco modified Eagle medium (DMEM) supplemented with 10% FBS under 100% humidity and 5% CO2 at 37° C. The cells were harvested and suspended at a concentration of 10^7 cells/mL in ENGS and 5 uL of the cell suspension was added to each well of a 96-well low-adhesion plate. The cells (n=4 wells) were then treated with 5 uL of SEQ ID NO: 31 (final concentration of 10 μg/mL) in ENGS with 1 mM IBMX for 10 minutes. cAMP levels were evaluated using a cAMP assay kit (PerkinElmer, Waltham, MA, USA, #62AM4PEB) in accordance with its manufacture's protocol with a PerkinElmer plate reader. Statistical analysis was performed with GraphPad Prism against untreated control wells (n=4 wells) * P<0.05. The NPR-C receptor has been implicated in inhibiting adenylate cyclase activity, which would lead to a decrease in cyclic adenosine monophosphate (cAMP) production.
In vitro protocol: HeLa cells were purchased from ATCC (Manassas, VA, USA). […] Then, the cells (n=4 wells) were treated with 5 uL of SEQ ID NO: 31 (final concentration of 10 μg/mL) in ENGS with 1 mM IBMX (Fujifilm, Tokyo, Japan, #099-03411) for 10 minutes. cAMP levels were evaluated using a cAMP assay kit (PerkinElmer, Waltham, MA, USA, #62AM4PEB) in accordance with its manufacture's protocol with a plate reader (PerkinElmer, Waltham, MA, USA, #Nivo). […]

As to `CCCCCCCCCCCCCCCC(=O)NCCOCCOCC(=O)NCCOCCOCC(=O)NCCOCCOCC(=O)N[C@@H](CN)C(=O)N[C@@H](CN)C(=O)NCC(=O)N[C@@H](CC(C)C)C(=O)N[C@@H](CO)C(=O)N[C@@H](CCCCN)C(=O)NCC(=O)N[C@H]1CSSC[C@@H](C(=O)O)NC(=O)CNC(=O)[C@H](CC(C)C)NC(=O)CNC(=O)[C@H](CO)NC(=O)[C@H](CCC(N)=O)NC(=O)[C@H](CO)NC(=O)CNC(=O)[C@H]([C@@H](C)CC)NC(=O)[C@H](CCCNC(=N)N)NC(=O)[C@H](CC(=O)O)NC(=O)[C@H](CC(C)C)NC(=O)[C@H](CCCCN)NC(=O)[C@H](CC(C)C)NC(=O)CNC(=O)[C@H](Cc2ccccc2)NC1=O` [SEQ ID NO: 31] ({Palmitoyl-AEEA-AEEA-AEEA}-[Dap][Dap]GLSKGCFGLKLDRIGSQSGLGC-OH; disulfide 8-24; C-terminus assumed), the “cAMP baseline levels of HeLa cells” value was “changes (inhibition) of cAMP baseline levels”.
